# Patent US20120184532A1 (priority 2009, published 2012)
# Where “and” joins values, the source holds several entries; their conditions need not be identical. Identical values can stand only once. Entries after “also recorded” stand apart in the source; their conditions may differ. Counter-ions that a name gives are not always drawn.
# What was measured:
# [1] = target: T1, Acetylcholinesterase (h), human recombinant (HEK-293 cells) (Homo sapiens, UniProt P22303); experiment: In vitro human acetylcholine esterase inhibition; type: biochemical; details: in contrast to galantamine
# T1 construct: host or cells: HEK-293 cells
# [2] = tested on: Sprague Dawley rat; experiment: PICA behavior (kaolin consumption) as surrogate for emesis in the rat; type: in vivo; details: for rat kaolin consumption (g) over 24 h post-dose: single subcutaneous dose 3.5 mg base/kg
# Protocol: This is a well established model for this purpose in the rat (Takeda N et al (1993) 45 817-21).
# Once determined, a comparison was made of the effects of these doses on kaolin consumption over a 0-96 hour period in 24 h increments.
# In detail groups of 10 male Sprague Dawley rats were habituated to kaolin for 3 days, then singly housed in grid-bottomed cages and habituated for a further 2 days prior to dosing. On the day of drug administration, the animals were food-deprived for 1 h prior to dosing. […] Access to a weighed quantity of food and kaolin was then restored. Food and kaolin was weighed 24, 48, 72 and 96 h after dosing.
# [3] = tested on: human stomach circular smooth muscle; experiment: Ex vivo human stomach circular smooth muscle, electrical field stimulation; details: human stomach strips, EFS, 100 nM to 100 μM
# [4] = tested on: rabbit stomach circular smooth muscle; experiment: Ex vivo rabbit stomach circular smooth muscle, electrical field stimulation; details: rabbit stomach strips, EFS, 100 nM to 100 μM
# [5] = tested on: ferret; experiment: Emetic activity (retching and vomiting) in the ferret; details: for Time (min) to onset of: Retching / Time (min) to onset of: Vomiting / Total number of individual incidences of: Retching / Total number of individual incidences of: Vomiting: 2 hr. observation; for animals dosed that retched / animals dosed that vomited: 20 mg (free base)/kg or similar molar dose, oral
# [6] = tested on: rat; experiment: Comparative acute toxicity (behavior) of sc and po galantamine in the rat; type: in vivo; details: individual rats
# [7] = 40 mg/kg as base p.o., individual animals
# [8] = 20 mg/kg p.o., individual animals, listed as Galantamine HBr, hydrobromide, 20 mg/kg
# [9] = 20 mg/kg p.o., individual animals, listed as Galantamine valine ester tartrate, 20 mg/kg
# T1 sequence (P22303 32-614): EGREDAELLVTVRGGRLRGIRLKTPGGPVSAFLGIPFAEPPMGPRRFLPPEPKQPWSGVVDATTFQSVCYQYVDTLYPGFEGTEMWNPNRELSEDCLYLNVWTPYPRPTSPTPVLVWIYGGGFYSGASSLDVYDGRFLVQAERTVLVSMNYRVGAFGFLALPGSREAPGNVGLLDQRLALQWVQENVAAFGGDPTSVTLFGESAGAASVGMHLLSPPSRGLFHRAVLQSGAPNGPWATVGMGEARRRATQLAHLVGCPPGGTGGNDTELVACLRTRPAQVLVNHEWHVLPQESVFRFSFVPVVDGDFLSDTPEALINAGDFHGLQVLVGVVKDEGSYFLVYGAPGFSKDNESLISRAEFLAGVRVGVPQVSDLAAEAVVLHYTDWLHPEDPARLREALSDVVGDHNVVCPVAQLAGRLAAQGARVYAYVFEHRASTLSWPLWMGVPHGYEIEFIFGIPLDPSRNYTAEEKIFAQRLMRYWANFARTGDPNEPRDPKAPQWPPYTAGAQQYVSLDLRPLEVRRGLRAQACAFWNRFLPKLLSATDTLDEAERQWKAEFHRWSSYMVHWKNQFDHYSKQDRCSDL
compound,measurement,setting,value
COc1ccc2c3c1O[C@H]1C[C@@H](OC(=O)CCCC(=O)Nc4ccc(C(=O)O)cc4)C=C[C@@]31CCN(C)C2 [Galantamine [glutaryl-PABA] ester],inhibitory actions toward human acetylcholine esterase (in words),[1],significantly less inhibitory actions
COc1ccc2c3c1O[C@H]1C[C@@H](OC(=O)CCC(=O)N[C@H](C(=O)O)C(C)C)C=C[C@@]31CCN(C)C2 [Galantamine succinyl valine ester],Cumulative mean ± SD kaolin consumption,"[2]; 11.75 mg base/kg po (galantamine free base content), 24 h",0.14 ± 0.20 g
same,Cumulative mean ± SD kaolin consumption,"[2]; 11.75 mg base/kg po (galantamine free base content), 48 h",0.29 ± 0.24 g
same,Cumulative mean ± SD kaolin consumption,"[2]; 11.75 mg base/kg po (galantamine free base content), 72 h",0.48 ± 0.27 g
same,Cumulative mean ± SD kaolin consumption,"[2]; 11.75 mg base/kg po (galantamine free base content), 96 h",0.57 ± 0.40 g
same,Cumulative mean ± SD kaolin consumption,"[2]; 23.5 mg base/kg po (galantamine free base content), 24 h",0.31 ± 0.53 g
same,Cumulative mean ± SD kaolin consumption,"[2]; 23.5 mg base/kg po (galantamine free base content), 48 h",0.61 ± 0.69 g
same,Cumulative mean ± SD kaolin consumption,"[2]; 23.5 mg base/kg po (galantamine free base content), 72 h",0.95 ± 0.96 g
same,Cumulative mean ± SD kaolin consumption,"[2]; 23.5 mg base/kg po (galantamine free base content), 96 h",1.25 ± 1.31 g
same,Cumulative mean ± SD kaolin consumption,"[2]; 47 mg base/kg po (galantamine free base content), 24 h",0.15 ± 0.18 g
same,Cumulative mean ± SD kaolin consumption,"[2]; 47 mg base/kg po (galantamine free base content), 48 h",0.40 ± 0.18 g
same,Cumulative mean ± SD kaolin consumption,"[2]; 47 mg base/kg po (galantamine free base content), 72 h",0.63 ± 0.28 g
same,Cumulative mean ± SD kaolin consumption,"[2]; 47 mg base/kg po (galantamine free base content), 96 h",0.91 ± 0.45 g
same,Cumulative mean ± SD kaolin consumption,"[2]; 47 mg base/kg po (galantamine free base content), 96 h, listed as GSVE",0.91 ± 0.45 g
same,stimulation of smooth muscle contractions (change in force production),[3],complete absence of any such effect
same,stimulation of smooth muscle contractions (change in force production),[4],complete absence of any such effect
same,Time (min) to onset of: Retching,"[5]; 40 mg/kg as base p.o., Mean",>120 min
same,Time (min) to onset of: Vomiting,"[5]; 40 mg/kg as base p.o., Mean",>120 min
same,Total number of individual incidences of: Retching,"[5]; 40 mg/kg as base p.o., Mean",0
same,Total number of individual incidences of: Vomiting,"[5]; 40 mg/kg as base p.o., Mean",0
same,Time (min) to onset of: Retching,[5]; [7],>120 min
same,Time (min) to onset of: Vomiting,[5]; [7],>120 min
same,Total number of individual incidences of: Retching,[5]; [7],0
same,Total number of individual incidences of: Vomiting,[5]; [7],0
same,retching or vomiting observed (in words),[5]; oral 40 mg galantamine (free base equivs)/kg,no retching or vomiting at all
same,inhibitory actions toward human acetylcholine esterase (in words),[1],significantly less inhibitory actions
"COc1ccc2c3c1O[C@H]1C[C@@H](O)C=C[C@@]31CCN(C)C2 [Galantamine, (4aS,6R,8aS)-4a,5,9,10,11,12-hexahydro-3-methoxy-11-methyl-6H-benzofuro[3a,3,2ef][2]benzazepin-6-ol hydrobromide]",rat kaolin consumption (g) over 24 h post-dose,[2]; Mean,0.25 g
same,rat kaolin consumption (g) over 24 h post-dose,"[2]; individual rats, hydrobromide",0.67 g and 0.36 g and 0.88 g and 0.08 g and 0.00 g (3×) and 0.21 g and 0.05 g
same,stimulation of smooth muscle contractions (change in force production),[3],evidence of a dose response
same,stimulation of smooth muscle contractions (change in force production),[4],evidence of a dose response
same,animals dosed that retched,[5],55%
same,animals dosed that vomited,[5],40%
same,Time (min) to onset of: Retching,[5]; [8],6 min (2×) and 33 min and 3 min and 5 min (3×) and >120 min (8×) and 41 min and 11 min and 10 min and 7 min (2×)
same,Time (min) to onset of: Vomiting,[5]; [8],41 min and 33 min and 75 min and 5 min (2×) and >120 min (11×) and 37 min and 10 min and 13 min and 6 min
same,Total number of individual incidences of: Retching,[5]; [8],22 and 21 and 29 and 18 and 0 (9×) and 31 and 3 (2×) and 6 and 2 and 5 and 13
same,Total number of individual incidences of: Vomiting,[5]; [8],1 (6×) and 4 (2×) and 0 (11×) and 2
same,rat behavior,"[6]; 3.5 mg/kg sc, 2 min post dose, hydrobromide","Rat 1: purposeless chewing, mouth; also recorded: Rat 3: purposeless chewing, mouth"
same,rat behavior,"[6]; 3.5 mg/kg sc, 5 min post-dose, hydrobromide","Rat 3: As per 2 min; also recorded: Rat 1: purposeless chewing, mouth"
same,rat behavior,"[6]; 3.5 mg/kg sc, 10 min post-dose, hydrobromide","Rat 1: Tremors, flattened rostral body; also recorded: Rat 3: purposeless chewing, mouth"
same,rat behavior,"[6]; 3.5 mg/kg sc, 20 min post-dose, hydrobromide","Rat 1: Quiescent, flattened body posture,; also recorded: Rat 3: Some ambulation restored"
same,rat behavior,"[6]; 3.5 mg/kg sc, 30 min post-dose, hydrobromide","Rat 1: Quiescent, flattened body posture,; also recorded: Rat 3: Some ambulation restored"
same,rat behavior,"[6]; 3.5 mg/kg sc, 45 min post-dose",Rat 1: food consumption and more
same,rat behavior,"[6]; 3.5 mg/kg sc, 1 h, hydrobromide",Rat 1: Normal; also recorded: Rat 3: Normal
same,rat behavior,"[6]; 40 mg/kg po, 10 min post-dose, hydrobromide","Rat 6: Quiescent, purposeless; also recorded: Rat 7: Quiescent, purposeless chewing,"
same,rat behavior,"[6]; 40 mg/kg po, 20 min post-dose, hydrobromide",Ratc 6 as per 10 min + arching; also recorded: Rat 7: grooming + purposeless
same,rat behavior,"[6]; 40 mg/kg po, 30 min post-dose","Rat 6: quiescent, purposeless chewing,"
same,rat behavior,"[6]; 40 mg/kg po, 45 min post-dose, hydrobromide","Rat 6: flattened body posture, chewing,; also recorded: Rat 7: grooming, sawdust consumption"
same,rat behavior,"[6]; 40 mg/kg po, 1 h, hydrobromide","Rat 6: flattened body posture, tremor; also recorded: Rat 7: Grooming, sawdust"
same,rat behavior,"[6]; 40 mg/kg po, 1.5 h, hydrobromide","Rat 7: quiet, falttened posture"
same,rat behavior,"[6]; 40 mg/kg po, 2 h, hydrobromide",Rat 6: much improved; also recorded: Rat 7: much improved
same,rat behavior,"[6]; 40 mg/kg po, 3 h, hydrobromide",Rat 6: normal; also recorded: Rat 7: normal
"COc1ccc2c3c1O[C@H]1C[C@@H](OC(=O)[C@@H](N)C(C)C)C=C[C@@]31CCN(C)C2 [Galantamine-(S)-valine ester, galantamine-(S)-valine ester tartrate]",animals dosed that retched,[5],45%
same,animals dosed that vomited,[5],18%
same,Total number of individual incidences of: Retching,"[5]; 20 mg/kg p.o., Mean",3.9
same,Time (min) to onset of: Retching,[5]; [9],>120 min (6×) and 35 min and 11 min and 9 min and 6 min
same,Time (min) to onset of: Vomiting,[5]; [9],>120 min (9×) and 44 min and 9 min
same,Total number of individual incidences of: Retching,[5]; [9],0 (6×) and 22 and 2 (2×) and 3 and 14
same,Total number of individual incidences of: Vomiting,[5]; [9],0 (9×) and 1 and 3
